From ChEMBL document CHEMBL3817829, “Spirooxindoles as novel 3D-fragment scaffolds: Synthesis and screening against CYP121 from M. tuberculosis” (Bioorg Med Chem Lett, 2016) come the findings set out here.

The nature of data set [1]: Solubility of compound in 50 mM Tris-Hcl/1mM EDTA at 1 mM at pH 7.5. The format is physicochemical. As to conditions: buffer, pH 7.5, 1000 µM.
Data set [2] has as its target T1, Mycocyclosin synthase (Mycobacterium tuberculosis, UniProt P9WPP7).
T1 sequence (P9WPP7 whole entry): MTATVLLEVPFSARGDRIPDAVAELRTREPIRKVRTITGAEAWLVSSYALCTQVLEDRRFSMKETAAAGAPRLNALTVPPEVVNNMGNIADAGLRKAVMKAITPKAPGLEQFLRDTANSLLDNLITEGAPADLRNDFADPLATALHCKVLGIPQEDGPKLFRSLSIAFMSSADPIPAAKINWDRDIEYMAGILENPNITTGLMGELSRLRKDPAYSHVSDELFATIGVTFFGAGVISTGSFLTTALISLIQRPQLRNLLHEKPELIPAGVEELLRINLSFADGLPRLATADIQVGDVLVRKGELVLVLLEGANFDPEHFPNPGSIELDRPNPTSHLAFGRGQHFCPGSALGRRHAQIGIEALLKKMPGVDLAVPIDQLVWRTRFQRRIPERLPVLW
Description: Binding affinity to Mycobacterium tuberculosis recombinant His6-tagged CYP121 expressed in Escherichia coli C41(DE3) cells assessed as change in wavelength of heme soret band at 1 mM by UV-visible spectrophotometric method. As to conditions: 1000 µM.

For data set [3], the target named is T1, Mycocyclosin synthase. Description: Binding affinity to Mycobacterium tuberculosis recombinant His6-tagged CYP121 expressed in Escherichia coli C41(DE3) cells by isothermal titration calorimetry. (In general: In ITC the heat of successive injections is recorded.)

pKd: −log10 of the molar value.

In the case of `CCOC(=O)/C=C1/C(=O)Nc2ccccc21`, the solubility entry in data set [1] was “soluble”. The Activity in data set [2] is given as 0 nm.
As to `CCOC(=O)/C=C1/C(=O)Nc2ccc(F)cc21`, the solubility result in data set [1] is “soluble”. For the same compound, the Activity in data set [2] worked out at 0 nm.
Taken in the same sequence, the figures for `CCOC(=O)/C=C1/C(=O)Nc2ccc(Cl)cc21` were “Insoluble” and “ND(Insoluble)”.
Taken in the same sequence, the figures for `CCOC(=O)[C@@H]1[C@@H]2C=C[C@@H](C2)[C@@]12C(=O)Sc1ccccc12` were “soluble” and 0 nm.
For `N#CCC1C(=O)Nc2ccccc21` (configuration not stated), the solubility entry in data set [1] was “soluble”. For the same compound, the Activity in data set [2] was determined as 0 nm.
On the same counts, the results for `CN1C(=O)C(CC#N)c2ccccc21` (configuration not stated) are “soluble” and 0 nm.
As for `CCOC(=O)[C@H]1[C@@H]2C=C[C@@H](C2)[C@]12C(=O)N(C(C)=O)c1ccccc12`, in data set [1], the solubility result is reported as “soluble”. Besides, the Activity in data set [2] was 0 nm.
Taken in the same sequence, the figures for `N#C/C=C1/C(=O)Nc2ccc(OC(F)(F)F)cc21` were “soluble” and 0 nm.
On the same counts, the results for `CCOC(=O)CC1C(=O)Nc2ccc(OC(F)(F)F)cc21` (configuration not stated) are “soluble” and 0 nm.
On the same counts, the results for `CCOC(=O)[C@H]1[C@@H]2C=C[C@@H](C2)[C@]12C(=O)Sc1ccccc12` are “soluble” and -1 nm.
As to `CCOC(=O)[C@H]1[C@@H]2C=C[C@@H](C2)[C@]12C(=O)Nc1ccc(OC(F)(F)F)cc12`, the solubility entry in data set [1] was “soluble”. For the same compound, the Activity in data set [2] turned out to be 0 nm.
For `N#C/C=C1/C(=O)Nc2ccccc21`, in data set [1], the solubility entry is listed as “soluble”. Also, the Activity in data set [2] was found to be 0 nm.
As to `CCOC(=O)[C@@H]1[C@@H]2C=C[C@@H](C2)[C@@]12C(=O)Oc1ccccc12`, the solubility result in data set [1] is given as “soluble”. In addition, in data set [2], the Activity came to 0 nm.
Consider `CCOC(=O)[C@@H]1[C@@H]2C=C[C@@H](C2)[C@@]12C(=O)Nc1ccc(OC(F)(F)F)cc12`, for which the solubility entry in data set [1] is on record as “soluble”. In data set [2], the Activity was determined as 0 nm.
In the case of `Nc1ccc2nccc(-n3cncn3)c2c1`, the Activity in data set [2] was found to be 3 nm. For the same compound, in data set [3], the pKd (in general, the negative decadic logarithm of the Kd, by convention in mol/L) is 4.55.
`N#CCC1C(=O)Nc2ccc(OC(F)(F)F)cc21` (configuration not stated): the solubility entry in data set [1] was “soluble”. In addition, the Activity in data set [2] was -2 nm.
Taken in the same sequence, the figures for `CCOC(=O)[C@@H]1[C@@H]2C=C[C@@H](C2)[C@@]12C(=O)N(C)c1ccccc12` were “soluble” and 0 nm.
Taken in the same sequence, the figures for `CCOC(=O)/C=C1/C(=O)Sc2ccccc21` were “soluble” and 0 nm.
Turning to `CCOC(=O)CC1C(=O)Oc2ccccc21` (configuration not stated), the solubility entry in data set [1] was “soluble”. For the same compound, the Activity in data set [2] came out at 0 nm.
On the same counts, the results for `CCOC(=O)[C@@H]1[C@@H]2C=C[C@@H](C2)[C@@]12C(=O)Nc1ccc(F)cc12` are “soluble” and 0 nm.
Taken in the same sequence, the figures for `CCOC(=O)/C=C1/C(=O)N(C)c2ccccc21` were “soluble” and 0 nm.
On the same counts, the results for `N#C[C@@H]1[C@@H]2C=C[C@@H](C2)[C@@]12C(=O)Nc1ccccc12` are “soluble” and 0 nm.
For `CCOC(=O)[C@H]1[C@@H]2C=C[C@@H](C2)[C@]12C(=O)Nc1ccc(Cl)cc12`, the solubility entry in data set [1] is listed as “soluble”. Moreover, in data set [2], the Activity is -1 nm.
Turning to `CCOC(=O)/C=C1/C(=O)Nc2ccc([N+](=O)[O-])cc21`, in data set [1], the solubility entry is “Insoluble”. In addition, in data set [2], the Activity entry is given as “ND(Insoluble)”.
Taken in the same sequence, the figures for `CCOC(=O)[C@H]1[C@@H]2C=C[C@@H](C2)[C@]12C(=O)Nc1ccccc12` were “soluble” and 0 nm.
On the same counts, the results for `CCOC(=O)[C@H]1[C@@H]2C=C[C@@H](C2)[C@]12C(=O)N(C)c1ccccc12` are “soluble” and -2 nm.
Taken in the same sequence, the figures for `CCOC(=O)/C=C1/C(=O)Oc2ccccc21` were “soluble” and -1 nm.
On to `CCOC(=O)[C@@H]1[C@@H]2C=C[C@@H](C2)[C@@]12C(=O)N(C(C)=O)c1ccccc12`, for which, in data set [1], the solubility entry was “soluble”. Also, the Activity in data set [2] was 0 nm.
On the same counts, the results for `CCOC(=O)[C@@H]1[C@@H]2C=C[C@@H](C2)[C@@]12C(=O)Nc1ccc(Cl)cc12` are “soluble” and 0 nm.
On the same counts, the results for `CCOC(=O)/C=C1/C(=O)Nc2ccc(OC(F)(F)F)cc21` are “soluble” and 0 nm.
Taken in the same sequence, the figures for `CCOC(=O)[C@H]1[C@@H]2C=C[C@@H](C2)[C@]12C(=O)Nc1ccc(F)cc12` were “soluble” and 0 nm.
On to `CN1C(=O)/C(=C/C#N)c2ccccc21`, for which the solubility entry in data set [1] was “soluble”. Moreover, the Activity in data set [2] was 0 nm.
Taken in the same sequence, the figures for `N#C[C@H]1[C@@H]2C=C[C@@H](C2)[C@]12C(=O)Nc1ccccc12` were “soluble” and 0 nm.
On the same counts, the results for `CCOC(=O)CC1C(=O)Nc2ccc(F)cc21` (configuration not stated) are “soluble” and 0 nm.
On the same counts, the results for `CCOC(=O)[C@H]1[C@@H]2C=C[C@@H](C2)[C@]12C(=O)Oc1ccccc12` are “soluble” and -1 nm.
Turning to `CCOC(=O)CC1C(=O)Nc2ccc(Cl)cc21` (configuration not stated), the solubility result in data set [1] is “soluble”. The Activity in data set [2] was 0 nm.
Taken in the same sequence, the figures for `CCOC(=O)/C=C1/C(=O)N(C(C)=O)c2ccccc21` were “soluble” and 0 nm.
`CCOC(=O)[C@@H]1[C@@H]2C=C[C@@H](C2)[C@@]12C(=O)Nc1ccccc12`: the solubility entry in data set [1] was “soluble”. For the same compound, the Activity in data set [2] is given as -1 nm.
Taken in the same sequence, the figures for `N#CC1[C@@H]2C=C[C@@H](C2)C12C(=O)Nc1ccccc12` (mixture of isomers) were “soluble” and 0 nm.
Regarding `N#CC1[C@@H]2C=C[C@@H](C2)C12C(=O)Nc1ccc(OC(F)(F)F)cc12` (mixture of isomers), the solubility result in data set [1] is “soluble”. The Activity in data set [2] is reported as 0 nm.
On the same counts, the results for `CCOC(=O)C1[C@@H]2C=C[C@@H](C2)C12C(=O)Nc1ccc([N+](=O)[O-])cc12` (mixture of isomers) are “Insoluble” and “ND(Insoluble)”.
